Measured values as given in patent US9278934B2, “Method for producing fine particles of aripiprazole anhydride crystals B” (OTSUKA PHARMACEUTICAL CO., LTD., priority 2011, dated 2016).

Assay: Hygroscopicity: water content before and after 24 hours in a desiccator at 60° C. and humidity 100%
Format: physicochemical
Settings: for Water content (%) after 24 hours: after 24 hours in a desiccator at a temperature of 60° C. and a humidity of 100%; for Water content (%) at the start: obtained crystals, before conditioning
Experimental: Aripiprazole anhydride crystals B have a low hygroscopicity; and, for example, maintain a water content of 0.4% or less, and further 0.1% or less, after 24 hours of conditioning in a desiccator set at a temperature of 60° C. and a humidity of 100%. Known methods for measuring water content can be used as long as they are commonly used for measuring the water content of crystals. For example, a method such as the Karl Fischer method can be used.
Fine particles of the crystals after heating treatment (drying) are the fine particles of anhydride crystals B of aripiprazole. These particles have the physicochemical properties (1) to (5) described above, and also have a low hygroscopicity; specifically, the water content thereof after 24 hours of conditioning in a desiccator adjusted to a temperature of 60° C. and a humidity of 100% is 0.4% or less, further 0.2% or less, and furthremore 0.1% or less.

Row | Compound | Water content (%) after 24 hours [%] | hygroscopicity (left to stand for 24 hours in a desiccator at 60° C. and a humidity of 100%) [%] | Water content (%) at the start [%] | Water content (%) after 24 hours (listed as anhydride crystals B of aripiprazole) [%]
1 | O=C1CCc2ccc(OCCCCN3CCN(c4cccc(Cl)c4Cl)CC3)cc2N1 [Example 1, 7-{4-[4-(2,3-dichlorophenyl)-1-piperazinyl]butoxy}-3,4-dihydrocarbostyril] | 0.10 | < 4 | 0.11 | –
2 | O=C1CCc2ccc(OCCCCN3CCN(c4cccc(Cl)c4Cl)CC3)cc2N1 [Example 2, 7-{4-[4-(2,3-dichlorophenyl)-1-piperazinyl]butoxy}-3,4-dihydrocarbostyril] | ≤ 0.01 | – | 0.01 | –
3 | O=C1CCc2ccc(OCCCCN3CCN(c4cccc(Cl)c4Cl)CC3)cc2N1 [Example 3, 7-{4-[4-(2,3-dichlorophenyl)-1-piperazinyl]butoxy}-3,4-dihydrocarbostyril] | 0.17 | – | 0.08 | –
4 | O=C1CCc2ccc(OCCCCN3CCN(c4cccc(Cl)c4Cl)CC3)cc2N1 [Aripiprazole anhydride crystals B, 7-{4-[4-(2,3-dichlorophenyl)-1-piperazinyl]butoxy}-3,4-dihydrocarbostyril] | ≤ 0.4 | – | – | ≤ 0.4
